Measured values reported in article PMC8310135 (Viruses, 2021).
Structures can show the parent of a compound that is named as a salt. Where two headings read alike, the source gives them in different places.

Experiments:
rLUJV/ZsG = assay: microbe, parasite or virus in culture; type: cell-based, Lujo virus; conditions: for activity at 0.05 µM / activity at 0.5 µM / activity at 5 µM: Huh-7, read-out: Relative ZsG (%) Mean
in vitro = conditions: human; for CC50: CC50 (50% cell cytotoxicity concentration)
[1] = Mammarenavirus lujoense, 500 nM
[2] = Mammarenavirus lujoense, 5000 nM

Compound | Relative ZsG (%) Mean (rLUJV/ZsG; 50 nM) [%] | Relative ZsG (%) Mean (rLUJV/ZsG; 500 nM) [%] | Relative ZsG (%) Mean (rLUJV/ZsG; 5000 nM) [%] | Cell Viability (%) Mean (Huh7 cells; 50 nM) [%] | Cell Viability (%) Mean (Huh7 cells; 500 nM) [%] | Cell Viability (%) Mean (Huh7 cells; 5000 nM) [%] | activity at 0.05 µM (rLUJV/ZsG; Mammarenavirus lujoense, 50 nM) [%] | activity at 0.5 µM (rLUJV/ZsG; [1]) [%] | activity at 5 µM (rLUJV/ZsG; [2]) [%] | viability at 0.05 µM (in vitro) [%] | viability at 0.5 µM (in vitro) [%] | viability at 5 µM (in vitro) [%] | CC50 (in vitro) [µM] | SI (selectivity index, CC50 divided by EC50) (rLUJV/ZsG) | EC50 (rLUJV/ZsG; Mammarenavirus lujoense, Huh-7, read-out: EC50 (concentration inhibiting ZsG expression by 50%)) [µM] | EC50 (rLUJV/ZsG; read-out: EC50 (concentration inhibiting ZsG expression by 50%)) [µM]
[N-]=[N+]=N[C@]1(CO)O[C@@H](n2ccc(N)nc2=O)[C@H](O)[C@@H]1O [R-1479] | 118 | 100 | 103 | 104 | 101 | 96 | – | – | – | – | – | – | – | – | – | –
COc1ccc(-n2cnc3cc(NCc4ccc(C(C)C)cc4)ccc32)cc1 [ST-193] | 107 | 102 | 91 | 105 | 98 | 101 | – | – | – | – | – | – | – | – | – | –
CCCCCCCCCCCCCCCCn1cc[n+](Cc2ccccc2)c1C.[I-] [NH125] | 60 | 28 | 2 | 104 | 63 | 1 | – | – | – | – | – | – | – | – | – | –
Cl.Fc1ccc([C@@H]2CCNC[C@H]2COc2ccc3c(c2)OCO3)cc1 [Paroxetine HCl] | 93 | 83 | 48 | 138 | 145 | 110 | – | – | – | – | – | – | – | – | – | –
C[C@@]1(O)[C@H](O)[C@@H](CO)O[C@H]1n1ccc2c(N)ncnc21 [7-DMA] | 96 | 95 | 92 | 98 | 103 | 113 | – | – | – | – | – | – | – | – | – | –
Cc1ccc(Nc2nccc(N(C)c3ccc4c(C)n(C)nc4c3)n2)cc1S(N)(=O)=O.Cl [Pazopanib HCl] | 77 | 59 | 24 | 134 | 116 | 54 | – | – | – | – | – | – | – | – | – | –
Cc1cn([C@H]2C[C@H](N=[N+]=[N-])[C@@H](CO)O2)c(=O)[nH]c1=O [Zidovudine] | – | – | – | – | – | – | 99 | 88 | 92 | 97 | 105 | 93 | – | – | – | –
C[C@H](Cn1cnc2c(N)ncnc21)OCP(=O)(O)O [Tenofivir] | 114 | 138 | 96 | 101 | 100 | 100 | – | – | – | – | – | – | – | – | – | –
CN1CCC[C@@H]1CCO[C@](C)(c1ccccc1)c1ccc(Cl)cc1 [Clemastine fumarate] | – | – | – | – | – | – | 95 | 81 | 6 | 115 | 116 | 107 | – | – | – | –
N#CC1(c2ccc(NC(=O)c3cccnc3NCc3ccncc3)cc2)CCCC1 [Apatinib] | – | – | – | – | – | – | 91 | 67 | 47 | 113 | 119 | 95 | – | – | – | –
Clc1ccc(COC(Cn2ccnc2)c2ccc(Cl)cc2Cl)c(Cl)c1 (centres unmarked) [Miconazole nitrate] | – | – | – | – | – | – | 65 | 78 | 47 | 119 | 120 | 67 | – | – | – | –
CCCCc1oc2ccccc2c1C(=O)c1cc(I)c(OCCN(CC)CC)c(I)c1 [Amiodarone] | – | – | – | – | – | – | 80 | 60 | 3 | – | – | – | 13.6 ± 1.51 | – | – | –
COc1c(-c2ccc3cc(NS(C)(=O)=O)ccc3c2)cc(-n2ccc(=O)[nH]c2=O)cc1C(C)(C)C [ABT-333] | – | – | – | – | – | – | 131 | 111 | 129 | 99 | 96 | 104 | – | – | – | –
COc1ccc2cc1Oc1ccc(cc1)C[C@H]1c3cc(c(OC)cc3CCN1C)Oc1c(OC)c(OC)cc3c1[C@H](C2)N(C)CC3 [Tetrandrine] | – | – | – | – | – | – | 95 | 75 | 2 | 115 | 95 | 1 | – | – | – | –
CO[C@@H]1[C@H](O)[C@@H](CO)O[C@H]1n1ccc(=O)[nH]c1=O [2ʹ-O-methyluridine] | – | – | – | – | – | – | 122 | 130 | 110 | 97 | 100 | 96 | – | – | – | –
COc1cc2ncnc(Nc3cccc(Cl)c3)c2cc1OC [Tyrphostin AG1478] | – | – | – | – | – | – | 80 | 73 | 87 | 120 | 101 | 111 | – | – | – | –
C[C@@]1(O)[C@H](O)[C@@H](CO)O[C@H]1n1ccc(=O)[nH]c1=O [2ʹ-C-methyluridine] | – | – | – | – | – | – | 132 | 142 | 126 | 102 | 100 | 97 | – | – | – | –

Compound | Relative ZsG (%) Mean (rLUJV/ZsG; 50 nM) [%] | Relative ZsG (%) Mean (rLUJV/ZsG; 500 nM) [%] | Relative ZsG (%) Mean (rLUJV/ZsG; 5000 nM) [%] | Cell Viability (%) Mean (Huh7 cells; 50 nM) [%] | Cell Viability (%) Mean (Huh7 cells; 500 nM) [%] | Cell Viability (%) Mean (Huh7 cells; 5000 nM) [%] | activity at 0.05 µM (rLUJV/ZsG; Mammarenavirus lujoense, 50 nM) [%] | activity at 0.5 µM (rLUJV/ZsG; [1]) [%] | activity at 5 µM (rLUJV/ZsG; [2]) [%] | viability at 0.05 µM (in vitro) [%] | viability at 0.5 µM (in vitro) [%] | viability at 5 µM (in vitro) [%] | CC50 (in vitro) [µM] | SI (selectivity index, CC50 divided by EC50) (rLUJV/ZsG) | EC50 (rLUJV/ZsG; Mammarenavirus lujoense, Huh-7, read-out: EC50 (concentration inhibiting ZsG expression by 50%)) [µM] | EC50 (rLUJV/ZsG; read-out: EC50 (concentration inhibiting ZsG expression by 50%)) [µM]
O=C1C(O)=C([C@H]2CC[C@H](c3ccc(Cl)cc3)CC2)C(=O)c2ccccc21 [Atovaquone] | – | – | – | – | – | – | 108 | 90 | 74 | 129 | 134 | 115 | – | – | – | –
O=c1c(-c2ccc(O)cc2)coc2cc(O)cc(O)c12 [Genistein] | – | – | – | – | – | – | 83 | 68 | 92 | 123 | 111 | 106 | – | – | – | –
CCOC(=O)C1=C(C)NC(C)=C(C(=O)OCC)C1c1ccccc1/C=C/C(=O)OC(C)(C)C [Lacidipine] | – | – | – | – | – | – | 90 | 90 | 47 | 138 | 129 | 98 | – | – | – | –
COc1cc2ncnc(Nc3ccc(F)c(Cl)c3)c2cc1OCCCN1CCOCC1 [Gefitinib] | – | – | – | – | – | – | 77 | 71 | 48 | 128 | 121 | 101 | – | – | – | –
CC(C)OC(=O)[C@H](C)N[P@](=O)(OC[C@H]1O[C@@H](n2ccc(=O)[nH]c2=O)[C@](C)(F)[C@@H]1O)Oc1ccccc1 [PSI-7977] | – | – | – | – | – | – | 119 | 95 | 118 | 101 | 97 | 104 | – | – | – | –
O=c1[nH]c(=O)n([C@@H]2O[C@H](CO)[C@@H](O)[C@H]2O)cc1Br [5-bromouridine] | – | – | – | – | – | – | 134 | 131 | 106 | 97 | 102 | 100 | – | – | – | –
CC(C)(C)C(=O)OCOP(=O)(COCCn1cnc2c(N)ncnc21)OCOC(=O)C(C)(C)C [Adefovir dipivoxil] | – | – | – | – | – | – | 70 | 38 | 24 | 123 | 94 | 54 | – | – | – | –
O=C1CCc2ccc(OCCCCN3CCN(c4cccc(Cl)c4Cl)CC3)cc2N1 [Aripiprazole] | – | – | – | – | – | – | 71 | 81 | 16 | 124 | 126 | 59 | – | – | – | –
CCOC(=O)c1c(CSc2ccccc2)n(C)c2cc(Br)c(O)c(CN(C)C)c12 [Arbidol] | – | – | – | – | – | – | 77 | 65 | 40 | 135 | 139 | 109 | – | – | – | –
Cc1cn([C@H]2C=C[C@@H](CO)O2)c(=O)[nH]c1=O [Stavudine] | – | – | – | – | – | – | 125 | 104 | 96 | 101 | 98 | 103 | – | – | – | –
Clc1ccc(CSC(Cn2ccnc2)c2ccc(Cl)cc2Cl)cc1 (centres unmarked) [Sulconazole nitrate] | – | – | – | – | – | – | 86 | 66 | 42 | 132 | 131 | 52 | – | – | – | –
CO[C@@H]1[C@H](O)[C@@H](CO)O[C@H]1n1ccc(N)nc1=O [2ʹ-O-methylcytidine] | – | – | – | – | – | – | 118 | 127 | 114 | 98 | 103 | 100 | – | – | – | –
CN(C)CCOc1ccc(/C(=C(/CCCl)c2ccccc2)c2ccccc2)cc1 [Toremifene citrate] | – | – | – | – | – | – | 86 | 88 | 9 | 122 | 128 | 93 | 10.9 ± 3.14 | 2.6 | 4.22 ± 0.78 | 4.22 ± 0.778
COC(=O)C1=C(C)NC(C)=C(C(=O)OC2CCCN(Cc3ccccc3)C2)C1c1cccc([N+](=O)[O-])c1 (centres unmarked) [Benidipine] | – | – | – | – | – | – | 90 | 81 | 61 | 126 | 129 | 107 | – | – | – | –
O=c1[nH]c(=O)n([C@@H]2O[C@H](CO)[C@@H](O)[C@H]2O)cc1F [5-fluorouridine] | – | – | – | – | – | – | 94 | 51 | 19 | 97 | 100 | 103 | – | – | – | –
Cc1cn([C@@H]2O[C@H](CO)[C@@H](O)[C@H]2O)c(=O)nc1N [5-methylcytidine] | – | – | – | – | – | – | 122 | 129 | 108 | 96 | 97 | 98 | – | – | – | –
